{
  "source": "patent US11993579B1",
  "about": "“3-(1-(3-(dimethylamino)propyl)-4,5-diphenyl-1h-imidazol-2-yl)pyridin-4-ol as an anti-microbial compound” (KING FAISAL UNIVERSITY, priority 2023, dated 2024)",
  "key": {"[1]": {"tested_on": "Ps. Aeroqonaza", "experiment": "Anti-microbial activity by agar dilution, Ps. Aeroqonaza", "assay_type": "cell-based, Ps. aeruginosa", "details": "after 10, 20, 40, and 60 min at all dilutions 1:100, 1:200, 1:400, 1:800", "experimental": "(§1) The antibacterial properties of the synthesized compounds were studied by the method of agar dilution. Test solutions of each compound was prepared in a concentration of 1% using dimethylformamide as a solvent. Then the test solutions were diluted in a physiological solution to obtain the final experimental dilutions of 1:100, 1:200, 1:400, and 1:800. The effect of these substances was compared with furacillin in a controllable study. The testing microbes used were gram positive bacteria St. Aereus, gram negative bacteria E. Coli, and Ps. aeruginosa and Candida albicans fungi. The experiments used for this survey were a meat-pentonlu agar (EPA) for cultivation of bacteria and a Saburo environment for fungi. Each experiment used 1 mL of test solution on each plate for 500 min. Next, 2 drops of emulsified test solution with microbes feel were added. All experimental samples were taken from the agar after 10, 40, 60 minutes in the environment on the basis of Patrk planted. Bacteria were cultivated at a temperature of 37° C. for 1 day and the mushroom was kept in a thermostat for […] at a temperature of 28° C. Then results were checked."}, "[2]": {"tested_on": "Candida albicans", "experiment": "Anti-microbial activity by agar dilution, Candida albicans", "assay_type": "cell-based", "details": "after 10, 20, 40, and 60 min at all dilutions 1:100, 1:200, 1:400, 1:800", "experimental": "as §1"}, "[3]": {"tested_on": "St. Aereus", "experiment": "Anti-microbial activity by agar dilution, St. Aereus", "assay_type": "cell-based", "details": "after 10, 20, 40, and 60 min at all dilutions 1:100, 1:200, 1:400, 1:800", "experimental": "as §1"}, "[4]": {"tested_on": "E. Coli", "experiment": "Anti-microbial activity by agar dilution, E. Coli", "assay_type": "cell-based", "details": "after 10, 20, 40, and 60 min at all dilutions 1:100, 1:200, 1:400, 1:800", "experimental": "as §1"}},
  "data": [
    {"compound": "CN(C)CCCn1c(-c2cnccc2O)nc(-c2ccccc2)c1-c1ccccc1", "note": "[3-(1-(3-(dimethylamino)propyl)-4,5-diphenyl-1H-imidazol-2-yl)pyridin-4-ol]", "values": [
      {"measurement": "inhibition activity, Ps. aeruginosa (in words)", "setting": "[1]", "value": "showed the most inhibition activity"},
      {"measurement": "inhibition activity, Candida albicans (in words)", "setting": "[2]", "value": "showed the most inhibition activity"},
      {"measurement": "inhibition activity, St. Aereus (in words)", "setting": "[3]", "value": "showed the most inhibition activity"},
      {"measurement": "inhibition activity, E. Coli (in words)", "setting": "[4]", "value": "showed the most inhibition activity"},
      {"measurement": "melting point", "value": "137 to 139", "unit": "°C"}
    ]}
  ]
}
